Assay results reported in US9266834B2, “1, 4-disubstituted 3-cyano-pyridone derivatives and their use as positive allosteric modulators of MGLUR2-receptors” (JANSSEN PHARMACEUTICALS, INC., priority 2006, dated 2016).

Legend:
human mGluR2 receptor = target: T1, human mGluR2 receptor (Homo sapiens, UniProt Q14416); experiment: [35S]GTPγS binding assay (GTPγS-PAM): positive allosteric modulation in presence of glutamate at EC25, membranes from transfected CHO cells; format: biochemical; conditions: in presence of mGluR2 agonist glutamate at predetermined EC25 concentration, averages of duplicate values of 11-concentration response curves, read-out: GTPgS - hR2 PAM pEC50 (converted)
T1 construct: expressed in transfected cells; host or cells: CHO cells (membrane preparation)
T1 sequence (Q14416 19-872): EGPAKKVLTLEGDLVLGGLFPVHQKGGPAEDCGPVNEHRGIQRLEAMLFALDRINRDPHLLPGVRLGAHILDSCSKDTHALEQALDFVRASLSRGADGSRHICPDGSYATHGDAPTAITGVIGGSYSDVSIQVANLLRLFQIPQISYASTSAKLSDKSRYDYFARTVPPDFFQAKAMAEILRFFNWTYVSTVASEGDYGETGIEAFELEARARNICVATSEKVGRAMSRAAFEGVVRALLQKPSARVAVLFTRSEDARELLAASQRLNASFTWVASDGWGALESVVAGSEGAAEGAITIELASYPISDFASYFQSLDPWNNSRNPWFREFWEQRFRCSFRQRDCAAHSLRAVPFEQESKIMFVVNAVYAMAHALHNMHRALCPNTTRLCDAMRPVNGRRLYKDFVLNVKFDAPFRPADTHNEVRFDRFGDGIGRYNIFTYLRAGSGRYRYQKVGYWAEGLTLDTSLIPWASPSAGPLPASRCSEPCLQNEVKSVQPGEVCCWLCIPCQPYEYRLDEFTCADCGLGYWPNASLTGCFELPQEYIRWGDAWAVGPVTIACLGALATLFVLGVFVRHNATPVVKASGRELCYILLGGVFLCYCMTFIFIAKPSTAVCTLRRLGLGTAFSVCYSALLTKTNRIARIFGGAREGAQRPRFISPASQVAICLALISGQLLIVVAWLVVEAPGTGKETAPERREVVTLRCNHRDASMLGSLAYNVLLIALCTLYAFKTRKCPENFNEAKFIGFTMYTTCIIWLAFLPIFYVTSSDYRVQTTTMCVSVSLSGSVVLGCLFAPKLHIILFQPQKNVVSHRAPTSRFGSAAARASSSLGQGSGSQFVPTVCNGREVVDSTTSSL
Outline: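 Potentiation was read as filter-retained [35S]GTPγS (0.1 nM final, 30 min, 30° C.) after a 30 min, 30° C. preincubation of human mGluR2 CHO membranes (15 μg/well) with EC25 glutamate and 11 modulator concentrations spanning 0.3 nM-50 μM. The buffer was 50 mM HEPES pH 7.4, NaCl, MgCl2, 50 μM GDP and saponin. Cold 10 μM GTP defined nonspecific binding; data were fitted by a four-parameter logistic.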

| EC50 (human mGluR2 receptor) | melting point | SMILES |
| --- | --- | --- |
| – | 83 °C | CC(C)CCn1ccc(OCCOCc2ccccc2)c(C#N)c1=O [1-281] |
| – | 159 °C | CC(C)CCn1ccc(OCCN2CCN(c3ccccn3)CC2)c(C#N)c1=O [2-036] |
| – | 128 °C | N#Cc1c(N2CCC(c3ccccc3)CC2)ccn(CC2CC2)c1=O [4-047, 3-cyano-1-cyclopropylmethyl-4-(4-phenyl-piperidin-1-yl)-pyridine-2(1H)-one] |
| 251 nM | – | CC(C)CCn1ccc(N2CCc3ccccc3C2)c(C#N)c1=O [5-003] |
| 5010 nM | – | CC(C)CCn1ccc(N2C[C@@H]3C[C@H]2CN3Cc2ccccc2)c(C#N)c1=O [5-004] |
| 1260 nM | – | CC(C)CCn1ccc(C2CCN(Cc3ccccc3)C2)c(C#N)c1=O (stereo not drawn) [5-007] |
| 2000 nM | – | CC(C)CCn1ccc(-c2ccc3c(c2)CCN3)c(C#N)c1=O [5-014] |
| 1580 nM | – | CC(=O)N1CCc2cc(-c3ccn(CCC(C)C)c(=O)c3C#N)ccc21 [5-015] |
| 251 nM | – | CC(C)CCn1ccc(-c2ccc3[nH]ccc3c2)c(C#N)c1=O [5-016] |
| 794 nM | – | CC(C)CCn1ccc(-c2cccc3[nH]ccc23)c(C#N)c1=O [5-017] |
| 50.1 nM | – | CC(C)CCn1ccc(-c2ccc3c(ccn3-c3ccccc3)c2)c(C#N)c1=O [5-019] |
| 1580 nM | – | CC(C)CCn1ccc(-c2ccc3[nH]ncc3c2)c(C#N)c1=O [5-021] |
| 794 nM | – | CCCCn1ccc(-c2ccc3c(cnn3Cc3ccccn3)c2)c(C#N)c1=O [5-023] |
| 398 nM | – | CC(C)CCn1ccc(-c2ccc3c(cnn3Cc3ccncc3)c2)c(C#N)c1=O [5-025] |
| 316 nM | – | Cc1c(-c2ccn(CCC(C)C)c(=O)c2C#N)cnn1-c1ccccc1 [5-027] |
| 316 nM | – | Cc1nc(-c2ccccc2)sc1-c1ccn(CCC(C)C)c(=O)c1C#N [5-028] |
| – | 234 °C | CC(C)CCn1ccc(-n2ncc3ccccc32)c(C#N)c1=O [5-029] |
| 6310 nM | – | CC(C)CCn1ccc(N2CCOc3ccccc32)c(C#N)c1=O [5-030] |
| 1260 nM | – | COc1cc2c(cc1OC)CN(c1ccn(CCC(C)C)c(=O)c1C#N)CC2 [5-032] |
| 39.8 nM | – | CC(C)CCn1ccc(N2CCC3(CCc4ccccc43)CC2)c(C#N)c1=O [5-033] |
| 398 nM | – | CC(C)CCn1ccc(N2CCC3(CCN(c4ncccn4)CC3)CC2)c(C#N)c1=O [5-034] |
| 251 nM | – | CC(C)CCn1ccc(N2CCC3(CC2)COc2ccccc2O3)c(C#N)c1=O [5-036] |
| 200 nM | – | CC(C)CCn1ccc(N2CCc3c(sc4ccc(Cl)cc34)C2)c(C#N)c1=O [5-042] |
| 1000 nM | – | CC(C)CCn1ccc(N2CCCN(c3ccccc3)CC2)c(C#N)c1=O [5-043] |
| 1000 nM | – | COc1ccccc1N1CCCN(c2ccn(CCC(C)C)c(=O)c2C#N)CC1 [5-044] |
| 3980 nM | – | Cc1onc(-c2ccccc2)c1COc1ccn(CCC(C)C)c(=O)c1C#N [5-045] |
| 1580 nM | – | N#Cc1c(C#Cc2ccncc2)ccn(CC2CCCCC2)c1=O [5-049] |

The next lines start with the molecule.

| SMILES | EC50 (human mGluR2 receptor) | melting point |
| --- | --- | --- |
| N#Cc1c(-c2ccc(OC(F)(F)F)cc2)ccn(CC2CCCC2)c1=O [1-007] | 398 nM | 159 °C |
| N#Cc1c(-c2cccs2)ccn(CC2CCCCC2)c1=O [1-008] | 251 nM | 148 °C |
| N#Cc1c(-c2ccccc2)ccn(CC2CCCCC2)c1=O [1-009] | 1580 nM | 149 °C |
| COc1ccccc1-c1ccn(CC2CCCCC2)c(=O)c1C#N [1-011] | 2000 nM | 60 °C |
| COc1ccc(-c2ccn(CC3CCC(C)CC3)c(=O)c2C#N)cc1 (stereo not drawn) [1-013] | 126 nM | 128 °C |
| CC1CCC(Cn2ccc(-c3ccc(OC(F)(F)F)cc3)c(C#N)c2=O)CC1 (stereo not drawn) [1-014] | 100 nM | 143 °C |
| Cc1ccc(Cn2ccc(-c3ccco3)c(C#N)c2=O)cc1 [1-018] | 2510 nM | 155 °C |
| Cc1ccc(Cn2ccc(-c3cccs3)c(C#N)c2=O)cc1 [1-019] | 794 nM | 118 °C |
| COc1ccc(-c2ccn(Cc3ccc(C(F)(F)F)cc3)c(=O)c2C#N)cc1 [1-024] | 126 nM | 181 °C |
| N#Cc1c(-c2ccccc2)ccn(Cc2cccc(OC(F)(F)F)c2)c1=O [1-030] | 316 nM | 153 °C |
| N#Cc1c(-c2ccc(CN3CCCCC3)cc2)ccn(Cc2ccc(OC(F)(F)F)cc2)c1=O [1-031] | 2510 nM | 167 °C |
| N#Cc1c(-c2ccc(N3CCOCC3)cc2)ccn(Cc2ccc(OC(F)(F)F)cc2)c1=O [1-032] | 794 nM | 190 °C |
| N#Cc1c(-c2ccc(CN3CCOCC3)cc2)ccn(Cc2ccc(OC(F)(F)F)cc2)c1=O [1-033] | 2510 nM | 97 °C |
| C[C@@H]1CN(Cc2ccc(-c3ccn(Cc4ccc(OC(F)(F)F)cc4)c(=O)c3C#N)cc2)C[C@H](C)O1 [1-035] | 794 nM | 136 °C |
| N#Cc1c(-c2ccc(OCCN3CCOCC3)cc2)ccn(Cc2ccc(OC(F)(F)F)cc2)c1=O [1-037] | 2000 nM | 184 °C |
| N#Cc1c(-c2ccc(OCCCN3CCOCC3)cc2)ccn(Cc2ccc(OC(F)(F)F)cc2)c1=O [1-038] | 794 nM | 140 °C |
| COc1ccc(-c2ccn(Cc3ccc(OC(F)(F)F)cc3)c(=O)c2C#N)cc1 [1-039] | 158 nM | 169 °C |
| N#Cc1c(-c2ccc(CCCO)cc2)ccn(Cc2ccc(OC(F)(F)F)cc2)c1=O [1-040] | 200 nM | 180 °C |
| N#Cc1c(-c2ccc(Oc3ccccc3)cc2)ccn(Cc2ccc(OC(F)(F)F)cc2)c1=O [1-041] | 251 nM | 155 °C |
| N#Cc1c(-c2ccccc2)ccn(Cc2ccc(-c3ccccc3)cc2)c1=O [1-042] | 158 nM | 185 °C |
| N#Cc1c(-c2cccs2)ccn(Cc2ccc(C(F)(F)F)nc2)c1=O [1-046] | 1260 nM | 185 °C |
| COc1ccc(-c2ccn(CCOc3ccccc3)c(=O)c2C#N)cc1 [1-048] | 1000 nM | 188 °C |
| CCCn1ccc(-c2cccs2)c(C#N)c1=O [1-050] | – | 135 °C |
| N#Cc1c(-c2cccs2)ccn(CCCc2ccccc2)c1=O [1-052] | 2000 nM | 118 °C |
| CCCCn1ccc(-c2ccc(OC(F)(F)F)cc2)c(C#N)c1=O [1-055] | 1260 nM | 123 °C |
| CCCCn1ccc(-c2ccc(N3CCCCC3)cc2)c(C#N)c1=O [1-058] | 316 nM | 122 °C |

| SMILES | EC50 (human mGluR2 receptor) | melting point |
| --- | --- | --- |
| CCCCn1ccc(-c2cccs2)c(C#N)c1=O [1-059] | 5010 nM | 103 °C |
| CCCCn1ccc(-c2ccc(OCc3cccc(C)n3)cc2)c(C#N)c1=O [1-063] | 1000 nM | 102 °C |
| CC(C)Cn1ccc(-c2cccs2)c(C#N)c1=O [1-077] | 3980 nM | 108 °C |
| CC(C)Cn1ccc(-c2ccc(Oc3ccncc3)cc2)c(C#N)c1=O [1-078] | 3980 nM | 170 °C |
| CCCC(C)n1ccc(-c2cccs2)c(C#N)c1=O (stereo not drawn) [1-079] | 5010 nM | 103 °C |
| CC(C)CCn1ccc(-c2cccs2)c(C#N)c1=O [1-082] | 2000 nM | 123 °C |
| CC(C)CCn1ccc(-c2ccccc2)c(C#N)c1=O [1-084] | – | 142 °C |
| Cc1ccc(-c2ccn(CCC(C)C)c(=O)c2C#N)cc1 [1-085] | 794 nM | 102 °C |
| CC(C)CCn1ccc(-c2ccc(C(C)(C)C)cc2)c(C#N)c1=O [1-086] | 63.1 nM | 168 °C |
| CC(C)CCn1ccc(-c2ccccc2F)c(C#N)c1=O [1-087] | 3980 nM | 125 °C |
| CC(C)CCn1ccc(-c2cccc(F)c2)c(C#N)c1=O [1-088] | 2510 nM | 161 °C |
| CC(C)CCn1ccc(-c2cccc(Cl)c2)c(C#N)c1=O [1-090] | 794 nM | 123 °C |
| CC(C)CCn1ccc(-c2ccc(Cl)cc2)c(C#N)c1=O [1-091] | 1580 nM | 137 °C |
| CC(C)CCn1ccc(-c2ccc(-c3ccccc3)cc2)c(C#N)c1=O [1-093] | 25.1 nM | 172 °C |
| CC(C)CCn1ccc(-c2cccc(-c3ccccc3)c2)c(C#N)c1=O [1-094] | 501 nM | 131 °C |
| CC(C)CCn1ccc(-c2ccc(CCCO)cc2)c(C#N)c1=O [1-095, 3-cyano-4-(4-hydroxypropylphenyl)-1-(3-methylbutyl)pyridine-2(1H)-one] | 631 nM | 85 °C |
| CC(C)CCn1ccc(-c2cccc(O)c2)c(C#N)c1=O [1-096] | 1580 nM | 201 °C |
| CC(C)CCn1ccc(-c2ccc(O)cc2)c(C#N)c1=O [1-097] | 1580 nM | 210 °C |
| CC(C)CCn1ccc(-c2ccc(CO)cc2)c(C#N)c1=O [1-098] | – | 145 °C |
| CNC(=O)COc1ccc(-c2ccn(CCC(C)C)c(=O)c2C#N)cc1 [1-127] | – | 156 °C |
| CC(=O)NCc1cccc(-c2ccn(CCC(C)C)c(=O)c2C#N)c1 [1-178] | – | 157 °C |
| CC(C)CCn1ccc(-c2ccc(C(=O)NCc3ccncc3)cc2)c(C#N)c1=O [1-213] | – | 96 °C |
| CC(C)CCn1ccc(-c2ccc(CN3CCOCC3)cc2)c(C#N)c1=O [1-229] | – | 148 °C |
| CC(C)CCn1ccc(-c2ccc(-n3ccnc3)cc2)c(C#N)c1=O [1-235] | – | 151 °C |
| CC(C)CCn1ccc(-c2ccc(CCC(=O)O)cc2)c(C#N)c1=O [1-240] | – | 169 °C |
